Results taken from the CheMixHub viscosity set.
Values joined by “and” are separate entries in the source; they are usually repeats but may differ in a detail not shown here. Equal entries are not always repeated. ± gives the uncertainty stated by the source.

Assay: xn = mol fraction of the nth substance listed

CCCCC[NH3+].O=[N+]([O-])[O-] + O
298 K, 101 kPa
Details	viscosity [mPa·s]
x2 = 0.2	69.13 ± 2.4
x2 = 0.299	47.41 ± 1.4
x2 = 0.399	30.46 ± 0.85
x2 = 0.499	20.51 ± 0.53
x2 = 0.6	14.23 ± 0.35
x2 = 0.702	9.1 ± 0.21
x2 = 0.799	5.47 ± 0.12
x2 = 0.9	2.71 ± 0.06
x2 = 0.95	1.67 ± 0.04

CCCCOC(C)=O + O
303.15 K, 101 kPa
Details	viscosity [mPa·s]
x2 = 0.0201	0.64 ± 0.005
x2 = 0.04	0.641 ± 0.005
x2 = 0.0599	0.639 ± 0.005

CCCN(CCC)C(C)=O + O
298.16 K, 101 kPa
Details	viscosity [mPa·s]
x2 = 0.0688	2.38 ± 0.02
x2 = 0.1822	2.71 ± 0.02
x2 = 0.3049	3.12 ± 0.03
x2 = 0.4342	3.66 ± 0.03
x2 = 0.5515	4.26 ± 0.04
x2 = 0.6896	4.87 ± 0.04
x2 = 0.74	4.95 ± 0.04
x2 = 0.762	4.95 ± 0.04
x2 = 0.7891	4.88 ± 0.04
x2 = 0.8742	3.94 ± 0.03
x2 = 0.9163	2.96 ± 0.03

NC(=O)C[C@H](N)C(=O)O + O
viscosity, 101 kPa
Details	x1 = 0.00045	x1 = 0.0009	x1 = 0.001	x1 = 0.00135	x1 = 0.001798	x1 = 0.002247	x1 = 0.002695	x1 = 0.003
293.15 K	1.01 ± 0.023 mPa·s	1.018 ± 0.023 mPa·s	1.015 ± 0.022 mPa·s	1.025 ± 0.024 mPa·s	1.033 ± 0.024 mPa·s	1.041 ± 0.024 mPa·s	1.049 ± 0.024 mPa·s	1.033 ± 0.022 mPa·s
298.15 K	0.8972 ± 0.021 mPa·s	0.9037 ± 0.021 mPa·s	0.9105 ± 0.019 mPa·s	0.9104 ± 0.021 mPa·s	0.917 ± 0.021 mPa·s	0.9236 ± 0.021 mPa·s	0.9301 ± 0.021 mPa·s	0.9306 ± 0.02 mPa·s
303.15 K	0.8033 ± 0.018 mPa·s	0.8089 ± 0.019 mPa·s	0.8147 ± 0.017 mPa·s	0.8146 ± 0.019 mPa·s	0.8202 ± 0.019 mPa·s	0.8258 ± 0.019 mPa·s	0.8314 ± 0.019 mPa·s	0.8318 ± 0.017 mPa·s and 0.8318 ± 0.018 mPa·s
308.15 K	0.7243 ± 0.017 mPa·s	0.7292 ± 0.017 mPa·s	0.734 ± 0.015 mPa·s and 0.734 ± 0.016 mPa·s	0.734 ± 0.017 mPa·s	0.7388 ± 0.017 mPa·s	0.7436 ± 0.017 mPa·s	0.7484 ± 0.017 mPa·s	0.7488 ± 0.016 mPa·s
313.15 K	0.6573 ± 0.015 mPa·s	0.6615 ± 0.015 mPa·s	0.6657 ± 0.014 mPa·s	0.6657 ± 0.015 mPa·s	0.6699 ± 0.015 mPa·s	0.674 ± 0.015 mPa·s	0.6782 ± 0.016 mPa·s	0.6785 ± 0.014 mPa·s
318.15 K	0.6013 ± 0.014 mPa·s	0.605 ± 0.014 mPa·s	0.6087 ± 0.013 mPa·s	0.6087 ± 0.014 mPa·s	0.6123 ± 0.014 mPa·s	0.6159 ± 0.014 mPa·s	0.6195 ± 0.014 mPa·s	0.6198 ± 0.013 mPa·s

Nc1ncnc2[nH]cnc12 + O
viscosity [mPa·s], 101.3 kPa
Details	293.15 K	298.15 K	303.15 K	308.15 K	313.15 K	318.15 K
x1 = 9.33e-05	1.006 ± 0.1	0.895 ± 0.09	0.803 ± 0.081	0.738 ± 0.074	0.623 ± 0.062	0.595 ± 0.06
x1 = 0.0001925	1.009 ± 0.1	0.898 ± 0.09	0.806 ± 0.081	0.741 ± 0.074	0.626 ± 0.063	0.598 ± 0.06
x1 = 0.0002792	1.011 ± 0.1	0.9 ± 0.09	0.808 ± 0.081	0.743 ± 0.074	0.628 ± 0.063	0.6 ± 0.06
x1 = 0.0003724	1.013 ± 0.1	0.902 ± 0.09	0.81 ± 0.081	0.745 ± 0.075	0.63 ± 0.063	0.602 ± 0.06
x1 = 0.0004489	1.015 ± 0.1	0.904 ± 0.091	0.812 ± 0.081	0.747 ± 0.075	0.632 ± 0.063	0.604 ± 0.061
x1 = 0.0005443	1.017 ± 0.1	0.906 ± 0.091	0.814 ± 0.082	0.749 ± 0.075	0.634 ± 0.064	0.606 ± 0.061

O=[PH2][O-].[Na+] + O
Details	viscosity [mPa·s]
298.15 K, 101 kPa, x1 = 0.2095	4.83 ± 0.13

O=c1[nH]c2nc(O)nc(O)c2[nH]1 + O
viscosity [mPa·s], 101.3 kPa
Details	298.15 K	303.15 K	308.15 K	313.15 K
x1 = 1e-06	0.9 ± 0.04	0.82 ± 0.04	0.73 ± 0.04	0.63 ± 0.04
x1 = 2e-06	0.9 ± 0.04	0.83 ± 0.04	0.75 ± 0.04	0.65 ± 0.04
x1 = 3e-06	0.91 ± 0.04	0.84 ± 0.04	0.76 ± 0.04	0.66 ± 0.04

[Cl-].[Cl-].[Mn+2] + O
Details	viscosity [mPa·s]
298.15 K, 101.33 kPa, x1 = 0.09931	8.35 ± 0.23

[K+].[OH-] + O
323.15 K, 101 kPa
Details	viscosity [mPa·s]
x1 = 0.009	0.586 ± 0.018
x1 = 0.026	0.67 ± 0.02
x1 = 0.059	0.853 ± 0.026
x1 = 0.08	1.01 ± 0.03
x1 = 0.1	1.26 ± 0.04
x1 = 0.2	1.75 ± 0.05
x1 = 0.21	2.84 ± 0.09
x1 = 0.3	4.62 ± 0.14

O=C(O)c1ccco1 + O=C1CCCCCN1
101 kPa, x2 = 0.5
Details	viscosity [mPa·s]
303.1 K	179.6 ± 8.1
313.2 K	79.63 ± 1.9
323.1 K	44.44 ± 0.68

Cn1c(=O)c2c(ncn2C)n(C)c1=O + OCCO
viscosity [mPa·s], 100 kPa
Details	293.15 K	298.15 K	303.15 K	308.15 K	313.15 K	318.15 K	323.15 K
x1 = 0.00056	20.79 ± 0.15	16.86 ± 0.12	13.79 ± 0.099	11.41 ± 0.082	9.55 ± 0.069	8.092 ± 0.058	6.902 ± 0.05
x1 = 0.00112	20.75 ± 0.15	16.8 ± 0.12	13.77 ± 0.099	11.36 ± 0.082	9.528 ± 0.069	8.07 ± 0.058	6.89 ± 0.05
x1 = 0.00166	20.69 ± 0.15	16.76 ± 0.12	13.72 ± 0.098	11.34 ± 0.081	9.492 ± 0.068	8.048 ± 0.058	6.866 ± 0.05
x1 = 0.00222	20.64 ± 0.15	16.71 ± 0.12	13.67 ± 0.098	11.3 ± 0.081	9.464 ± 0.068	8.019 ± 0.058	6.833 ± 0.05
x1 = 0.00285	20.57 ± 0.15	16.66 ± 0.12	13.63 ± 0.098	11.27 ± 0.081	9.426 ± 0.068	7.982 ± 0.058	6.805 ± 0.049
x1 = 0.00335	20.53 ± 0.16	16.63 ± 0.12	13.59 ± 0.1	11.23 ± 0.082	9.403 ± 0.069	7.965 ± 0.058	6.785 ± 0.05

CC(C)c1ccccc1 + c1ccccc1
Details	viscosity [mPa·s]
293.15 K, 101.33 kPa, x2 = 0.3728	0.721 ± 0.013
293.15 K, 101.33 kPa, x2 = 0.5889	0.693 ± 0.0096
293.15 K, 101.33 kPa, x2 = 0.8176	0.66 ± 0.0068
293.15 K, 101.33 kPa, x2 = 0.9057	0.653 ± 0.0062
303.15 K, 101.3 kPa, x2 = 0.1245	0.6683 ± 0.0056
303.15 K, 101.3 kPa, x2 = 0.2644	0.6483 ± 0.0055
303.15 K, 101.3 kPa, x2 = 0.4246	0.6265 ± 0.0054
303.15 K, 101.3 kPa, x2 = 0.5391	0.6111 ± 0.0053
303.15 K, 101.3 kPa, x2 = 0.5606	0.6069 ± 0.0052
303.15 K, 101.3 kPa, x2 = 0.6382	0.5972 ± 0.0052
303.15 K, 101.3 kPa, x2 = 0.6478	0.5958 ± 0.0052
303.15 K, 101.3 kPa, x2 = 0.7409	0.5819 ± 0.0051
303.15 K, 101.3 kPa, x2 = 0.831	0.5721 ± 0.005
303.15 K, 101.3 kPa, x2 = 0.919	0.5634 ± 0.0049
303.15 K, 101.33 kPa, x2 = 0.3728	0.63 ± 0.011
303.15 K, 101.33 kPa, x2 = 0.5889	0.607 ± 0.0084
303.15 K, 101.33 kPa, x2 = 0.8176	0.575 ± 0.006
303.15 K, 101.33 kPa, x2 = 0.9057	0.563 ± 0.0054
313.15 K, 101.33 kPa, x2 = 0.3728	0.56 ± 0.01
313.15 K, 101.33 kPa, x2 = 0.5889	0.537 ± 0.0075
313.15 K, 101.33 kPa, x2 = 0.8176	0.512 ± 0.0054
313.15 K, 101.33 kPa, x2 = 0.9057	0.496 ± 0.0048
323.15 K, 101.33 kPa, x2 = 0.3728	0.499 ± 0.0092
323.15 K, 101.33 kPa, x2 = 0.5889	0.479 ± 0.0068
323.15 K, 101.33 kPa, x2 = 0.8176	0.454 ± 0.0049
323.15 K, 101.33 kPa, x2 = 0.9057	0.441 ± 0.0044

CCCCCCCC(=O)O + c1ccccc1
298.15 K, 101 kPa
Details	viscosity [mPa·s]
x1 = 0.03	0.638 ± 0.017
x1 = 0.057	0.68 ± 0.018
x1 = 0.087	0.727 ± 0.019
x1 = 0.12	0.781 ± 0.021
x1 = 0.27	1.072 ± 0.028
x1 = 0.35	1.295 ± 0.034
x1 = 0.45	1.591 ± 0.042
x1 = 0.68	2.505 ± 0.065

CCCCOC(C)=O + c1ccccc1
viscosity [mPa·s], 101 kPa
Details	298.15 K	308.15 K
x1 = 0.0487	0.601 ± 0.005	0.527 ± 0.005
x1 = 0.1494	0.598 ± 0.005	0.528 ± 0.005
x1 = 0.2494	0.598 ± 0.005	0.532 ± 0.005
x1 = 0.3494	0.6 ± 0.005	0.536 ± 0.005
x1 = 0.4454	0.604 ± 0.005	0.541 ± 0.005
x1 = 0.4954	0.607 ± 0.005	0.544 ± 0.005
x1 = 0.5489	0.611 ± 0.005	0.548 ± 0.005
x1 = 0.6497	0.62 ± 0.005	0.556 ± 0.005
x1 = 0.7503	0.632 ± 0.005	0.565 ± 0.005
x1 = 0.8496	0.647 ± 0.005	0.575 ± 0.005
x1 = 0.9424	0.663 ± 0.005	0.586 ± 0.005

OCCc1ccccc1 + c1ccccc1
293.15 K, 101.32 kPa
Details	viscosity [mPa·s]
x1 = 0.01771	0.6624 ± 0.13
x1 = 0.04031	0.6965 ± 0.14
x1 = 0.0739	0.7584 ± 0.15
x1 = 0.1095	0.8402 ± 0.17
x1 = 0.1585	0.985 ± 0.2
